Measured values published in article PMC12163485 (Drug Metabolism and Disposition, 2025).
Values joined by “and” are separate entries in the source; they are usually repeats but may differ in a detail not shown here. Equal values may be shown once. Read-outs that look alike come from different tables or passages of the source.

Legend:
OCT1 [1] = molecular target: T1, OCT1 (Homo sapiens, UniProt O15245); test: Uptake of the cocktail by HEK293 cells overexpressing human OCT1; conditions: cocktail
T1 sequence (O15245 1-554): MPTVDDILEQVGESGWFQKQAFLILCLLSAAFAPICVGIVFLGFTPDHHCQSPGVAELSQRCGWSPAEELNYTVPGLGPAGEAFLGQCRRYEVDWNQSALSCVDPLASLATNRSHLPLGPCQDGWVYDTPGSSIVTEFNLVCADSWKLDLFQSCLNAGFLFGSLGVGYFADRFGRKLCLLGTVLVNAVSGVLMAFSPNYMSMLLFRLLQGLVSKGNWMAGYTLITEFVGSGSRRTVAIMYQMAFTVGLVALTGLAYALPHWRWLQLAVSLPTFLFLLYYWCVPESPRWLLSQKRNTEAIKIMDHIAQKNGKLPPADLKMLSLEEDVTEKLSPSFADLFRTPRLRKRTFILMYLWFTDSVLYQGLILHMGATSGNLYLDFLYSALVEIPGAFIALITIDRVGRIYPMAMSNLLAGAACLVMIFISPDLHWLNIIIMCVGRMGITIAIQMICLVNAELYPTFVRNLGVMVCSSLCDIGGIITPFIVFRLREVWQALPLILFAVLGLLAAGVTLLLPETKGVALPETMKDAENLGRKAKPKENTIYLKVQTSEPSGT
Protocol: (§1) Significance was calculated using Mann–Whitney U test. n = 5–8 independent experiments.

[2] = cited from earlier work; for cmax = Imax: dose and route as in Supplemental Table 4, ref Hardman, 2018, fenoterol Tzvetkov et al; for cmax = Imax / fraction unbound: ipratropium Zhang et al, 2023; for fraction unbound: fraction unbound in plasma, ref Hardman, 2018, Lombardo et al (2018), fenoterol Tzvetkov et al; for tmax: p.o., ref Hardman, 2018
mouse OCT1 = molecular target: T2, mouse OCT1 (Mus musculus, UniProt O08966); test: Uptake of the cocktail by HEK293 cells overexpressing mouse Oct1
T2 sequence (O08966 1-556): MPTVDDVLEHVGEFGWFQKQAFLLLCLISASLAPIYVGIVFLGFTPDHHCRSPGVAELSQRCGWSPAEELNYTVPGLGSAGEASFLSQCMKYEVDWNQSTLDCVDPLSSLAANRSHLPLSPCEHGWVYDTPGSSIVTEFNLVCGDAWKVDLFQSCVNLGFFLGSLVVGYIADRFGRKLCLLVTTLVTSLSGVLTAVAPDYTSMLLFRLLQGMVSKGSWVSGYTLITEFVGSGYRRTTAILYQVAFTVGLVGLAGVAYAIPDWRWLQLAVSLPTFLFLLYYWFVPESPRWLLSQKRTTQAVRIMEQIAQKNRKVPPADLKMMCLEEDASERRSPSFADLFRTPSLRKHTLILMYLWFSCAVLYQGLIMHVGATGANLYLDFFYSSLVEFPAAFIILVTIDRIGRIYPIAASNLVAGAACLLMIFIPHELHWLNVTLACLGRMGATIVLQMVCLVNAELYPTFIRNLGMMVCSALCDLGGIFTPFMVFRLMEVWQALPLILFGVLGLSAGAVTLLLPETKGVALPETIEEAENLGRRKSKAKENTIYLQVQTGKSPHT
Protocol: as §1

[3] = Pharmacokinetic parameters used for estimating the potential for DDIs; type: in vivo, human; conditions: human; for k el: po
Protocol: Ka was calculated manually based on available pharmacokinetic parameters.

OCT1 [4] = molecular target: T1, OCT1; test: DDI risk R calculated from IC50 at human OCT1; conditions: R=1+fup×Iin,max/IC50, cutoff R ≥ 1.1
Protocol: (§2) Ka was calculated manually based on available pharmacokinetic parameters. Qh was set to 97 L/h and Fa was assumed as 1.

mOct1 = test system: mOct1; set-up: method as in ref column References of Table 2 (Morse et al, 2020; Jensen et al, 2020; Meyer et al, 2022); conditions: literature values; References of Table 2 (Morse et al, 2020; Jensen et al, 2020; Meyer et al, 2022); cited from earlier work
OCT1 [5] = conditions: ref Tzvetkov et al, 2018 (fenoterol); Matthaei et al, 2016 (sumatriptan); cited from earlier work
human OCT1 (hOCT1) [6] = molecular target: T3, human OCT1 (hOCT1) (Homo sapiens, UniProt O15245); set-up: expressed in transfected cells; empty vector control pcDNA5; method as in ref column References of Table 2 (Tzvetkov et al, 2018; Morse et al, 2020; Jensen et al, 2020; Meyer et al, 2019, 2022; Wittern et al, 2024 and own unpublished data; Elsby et al, 2017); conditions: literature values; References of Table 2 (Tzvetkov et al, 2018; Morse et al, 2020; Jensen et al, 2020; Meyer et al, 2019, 2022; Wittern et al, 2024 and own unpublished data; Elsby et al, 2017); cited from earlier work
T3 sequence (O15245 1-554): T1 sequence (O15245 1-554)

OCT1 [7] = molecular target: T1, OCT1
Protocol: as §2

human MATE2K (hMATE2K) = human MATE2K (hMATE2K) (Homo sapiens, UniProt Q86VL8); test: Uptake of the extended cocktail by HEK293 cells overexpressing hMATE2K; type: in vitro ADME; conditions: Fig. 6, uptake 1 minute after NH4Cl preincubation
human MATE2K (hMATE2K), sequence (Q86VL8 1-566 isoform Q86VL8-3): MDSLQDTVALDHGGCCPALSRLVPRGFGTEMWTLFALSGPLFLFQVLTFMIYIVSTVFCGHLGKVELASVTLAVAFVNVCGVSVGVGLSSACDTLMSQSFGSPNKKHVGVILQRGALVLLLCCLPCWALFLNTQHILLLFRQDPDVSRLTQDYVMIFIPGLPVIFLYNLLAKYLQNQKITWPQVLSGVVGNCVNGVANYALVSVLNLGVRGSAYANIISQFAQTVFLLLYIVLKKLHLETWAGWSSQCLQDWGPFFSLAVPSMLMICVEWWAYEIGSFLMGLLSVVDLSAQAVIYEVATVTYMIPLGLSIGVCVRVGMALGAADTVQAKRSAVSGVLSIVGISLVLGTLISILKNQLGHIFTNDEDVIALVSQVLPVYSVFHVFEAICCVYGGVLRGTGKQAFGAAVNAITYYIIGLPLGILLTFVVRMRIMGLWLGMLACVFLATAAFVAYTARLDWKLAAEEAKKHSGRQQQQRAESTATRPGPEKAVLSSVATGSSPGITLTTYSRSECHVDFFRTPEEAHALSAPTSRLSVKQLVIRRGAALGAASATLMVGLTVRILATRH

human OCT1 (hOCT1) [8] = molecular target: T3, human OCT1 (hOCT1); test: Inhibition of OCT1-mediated uptake of the cocktail substrates in HEK293 cells overexpressing human OCT1; conditions: human OCT1, mean ± SD
Protocol: (§3) The kinetic transport parameters KM and vmax as well as the half-maximal inhibitory concentration (IC50) were calculated using GraphPad Prism version 8.0.2 (GraphPad Software, Inc). KM and vmax were calculated using nonlinear regression to the Michaelis-Menten equation.

human OCT1 (hOCT1) [9] = molecular target: T3, human OCT1 (hOCT1)
Protocol: as §3

human MATE1 (hMATE1) = molecular target: T4, human MATE1 (hMATE1) (Homo sapiens, UniProt Q96FL8); test: Uptake of the extended cocktail by HEK293 cells overexpressing hMATE1; type: in vitro ADME; conditions: Fig. 6, uptake 1 minute after NH4Cl preincubation
T4 sequence (Q96FL8 1-570): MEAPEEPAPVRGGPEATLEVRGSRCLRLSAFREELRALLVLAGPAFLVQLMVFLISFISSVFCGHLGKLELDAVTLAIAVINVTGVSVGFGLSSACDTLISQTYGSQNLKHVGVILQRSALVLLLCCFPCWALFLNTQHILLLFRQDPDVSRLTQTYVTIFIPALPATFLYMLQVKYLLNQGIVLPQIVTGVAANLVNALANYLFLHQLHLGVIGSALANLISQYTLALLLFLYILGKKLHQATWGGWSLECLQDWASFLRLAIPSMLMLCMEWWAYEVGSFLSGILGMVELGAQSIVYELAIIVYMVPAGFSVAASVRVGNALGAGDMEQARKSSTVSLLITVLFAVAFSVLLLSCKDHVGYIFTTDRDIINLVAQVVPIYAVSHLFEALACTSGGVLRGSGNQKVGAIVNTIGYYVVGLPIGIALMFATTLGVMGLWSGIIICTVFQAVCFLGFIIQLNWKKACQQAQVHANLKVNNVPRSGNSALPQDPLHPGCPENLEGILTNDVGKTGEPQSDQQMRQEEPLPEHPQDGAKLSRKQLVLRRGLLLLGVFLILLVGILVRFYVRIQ

human OCT1 (hOCT1) [10] = molecular target: T3, human OCT1 (hOCT1); test: Transport kinetics (KM, vmax) of OCT1-mediated uptake, HEK293 cells overexpressing human OCT1; type: in vitro ADME; set-up: expressed in transfected cells; empty vector control pcDNA5; conditions: mean ± SD; for vmax: hOCT1; for Km at 2 min: human, HEK293 cells stably overexpressing human OCT1, pH 7.4, hOCT1
Protocol: To validate the cocktail, we analyzed whether the combination of all substrates in a cocktail affected their individual transport kinetics in terms of KM and vmax. […] To measure the transport kinetics for a single substrate in the cocktail, we increased the concentration of 1 substrate while keeping the concentrations of the other substrates in the cocktail constant. The resulting KM and vmax values were compared with those obtained when each substrate was tested alone (Fig. 2; Supplemental Table 5).

[11] = fold change to the negative control, n = 12

| SMILES | cmax = Imax [2] [ng/mL] | fraction unbound [2] | tmax [2] [h] | I max, portal, u ([3]; in vivo) [µM] | Imax, portal ([3]; in vivo) [ng/mL] | DDI risk R, victim drug fenoterol (OCT1 [4]) | DDI risk R, victim drug ipratropium (OCT1 [4]) | DDI risk R, victim drug methylnaltrexone (OCT1 [4]) | DDI risk R, victim drug salbutamol (OCT1 [4]) | DDI risk R, victim drug zolmitriptan (OCT1 [4]) | Km (mOct1) [µM] | Km (human OCT1 (hOCT1) [6]) [µM] | DDI risk R, victim drug trospium (OCT1 [7]) | transport by MATE2K (human MATE2K (hMATE2K)) | transport by MATE1 (human MATE1 (hMATE1)) | also measured |
| --- | --- | --- | --- | --- | --- | --- | --- | --- | --- | --- | --- | --- | --- | --- | --- | --- |
| CNS(=O)(=O)Cc1ccc2[nH]cc(CCN(C)C)c2c1 [Sumatriptan, sumatriptan] | 54 | 0.79 | 1.50 | 1.91 | 714.8 | 1.00 | 1.01 | 1.00 | 1.00 | 1.00 | 65.7 | 55.8 | 1.01 | by far the strongest transport activity | by far the strongest transport activity | human OCT1 uptake [fold change to pcDNA5] (OCT1 [1]; [11]): 15.3 fold change to pcDNA5; uptake stronger in human than in mouse OCT1 (OCT1 [1]; ratio human/mouse): 2 fold; t1/2 ([2]; ref Hardman, 2018, fenoterol Tzvetkov et al): 1.00 h; mouse Oct1 uptake [fold change to pcDNA5] (mouse OCT1; [11]): 7.8 fold change to pcDNA5; ka ([3]; in vivo): 0.64 h⁻¹; k el ([3]; plasma, read-out: ke (converted)): 0.000192 s⁻¹; DDI risk R, victim drug metformin (OCT1 [4]): 1.00; increase in systemic exposure in individuals homozygous for OCT1 loss-of-function genetic variants (OCT1 [5]): 2 fold; IC50 (human OCT1 (hOCT1) [8]; IC50 for inhibition of fenoterol uptake, substrate (victim) fenoterol 0.5 μM in cocktail): 482 ± 42.9 µM; IC50 (human OCT1 (hOCT1) [8]; IC50 for inhibition of ipratropium uptake, substrate (victim) ipratropium 0.5 μM in cocktail): 207 µM; IC50 (human OCT1 (hOCT1) [8]; IC50 for inhibition of methylnaltrexone uptake, substrate (victim) methylnaltrexone 1 μM in cocktail): 448 ± 40.9 µM; IC50 (human OCT1 (hOCT1) [8]; IC50 for inhibition of trospium uptake, substrate (victim) trospium 0.1 μM in cocktail): 270 ± 42.6 µM; IC50 (human OCT1 (hOCT1) [8]; IC50 for inhibition of zolmitriptan uptake, substrate (victim) zolmitriptan 0.5 μM in cocktail): 506 ± 36.2 µM; IC50 (human OCT1 (hOCT1) [9]): 604 µM and 628 µM |
| CN(C)C(=N)N=C(N)N [Metformin, metformin] | 1600 | 1 | 1.90 | 39.48 | 5100 | 1.00 | 1.01 | 1.01 | 1.00 | 1.00 | 491 | 3030 | 1.00 | by far the strongest transport activity | by far the strongest transport activity | uptake stronger in mouse than in human OCT1 (mouse OCT1; ratio mouse/human): 5.1 fold; k el ([3]; in vivo): 0.000111 s⁻¹; DDI risk R, victim drug sumatriptan (OCT1 [4]): 1.01; vmax (human OCT1 (hOCT1) [10]; substrate tested alone): 6999 ± 2065 pmol x min^-1 x mg protein^-1; vmax (human OCT1 (hOCT1) [10]; substrate tested in cocktail): 5251 ± 1311 pmol x min^-1 x mg protein^-1; Km at 2 min (human OCT1 (hOCT1) [10]; substrate tested alone): 1380 ± 512 µM; Km at 2 min (human OCT1 (hOCT1) [10]; substrate tested in cocktail): 2000 ± 338 µM |
